Measured values published in patent publication US5140009A (Tap Pharmaceuticals, Inc., priority 1990, dated 1992).
Square brackets hold non-standard residues; d marks the D form. Peptide text beside a SMILES is read from it. * marks the point of attachment. Propanoyl(3-indol-3-yl) = O=C(CCc1c[nH]c2ccccc12)*; Acetyl(1-adamantyl) = O=C(CC12CC3CC(CC(C3)C1)C2)*; Propanoyl(3-(4-F-phenyl)) = O=C(CCc1ccc(F)cc1)*; Propanoyl(3-(4-MeO-Ph)) = COc1ccc(CCC(=O)*)cc1; Hydrocinnamoyl(2,4-F2) = O=C(CCc1ccc(F)cc1F)*; Propanoyl(3-(4-Cl-Ph)) = O=C(CCc1ccc(Cl)cc1)*; X7 = CC1(C)CN(CC(=O)*)C(=O)C(c2ccccc2)=N1; Phenylacetyl(4-Cl) = O=C(Cc1ccc(Cl)cc1)*; Phenylacetyl(4-F) = O=C(Cc1ccc(F)cc1)*; 2Nal = N[C@@H](Cc1ccc2ccccc2c1)C(=O)O; Desaminotyrosyl = O=C(CCc1ccc(O)cc1)*; Cyclopentanecarbonyl = O=C(C1CCCC1)*; NMeY = CN[C@@H](Cc1ccc(O)cc1)C(=O)O; X13 = O=C(CCc1ccc(C(F)(F)F)cc1)*; d2Thi = N[C@H](Cc1cccs1)C(=O)O; X15 = O=C(Cc1ccc(O)cc1)*; X6 = O=C(CCc1ccccc1F)*

Biological target: T1, LHRH receptors (Rattus norvegicus, UniProt P30969)
T1 construct: Pituitary membranes containing LHRH receptors are prepared in batches from quick-frozen rat pituitaries; tissue Hilltop Labs; host or cells: rat pituitary membranes
T1 sequence (P30969 1-327): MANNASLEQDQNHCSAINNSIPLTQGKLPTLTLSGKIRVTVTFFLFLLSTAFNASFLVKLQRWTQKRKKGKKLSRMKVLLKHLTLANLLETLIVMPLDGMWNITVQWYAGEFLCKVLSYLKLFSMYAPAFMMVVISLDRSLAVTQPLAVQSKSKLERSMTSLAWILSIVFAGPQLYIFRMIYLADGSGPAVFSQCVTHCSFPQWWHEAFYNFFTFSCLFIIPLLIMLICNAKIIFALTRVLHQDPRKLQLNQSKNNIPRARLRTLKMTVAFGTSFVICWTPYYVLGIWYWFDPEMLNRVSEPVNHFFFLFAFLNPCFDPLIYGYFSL
Test: Receptor Binding (radioligand receptor binding assay)
Conditions: table 3; rat pituitary membranes, radioiodinated [D-Leu^6 -des Gly^10 ]-LHRH ethyl amide 50 pM, 2 hours at 4° C.; read-out: Receptor Binding pkI (converted)

Compound	Ki [nM]
CCNC(=O)[C@@H]1CCCN1C(=O)[C@H](CCCNC(=N)N)NC(=O)[C@H](CC(C)C)NC(=O)[C@@H](CCCNC(=N)N)NC(=O)[C@H](Cc1ccc(O)cc1)NC(=O)[C@H](CO)NC(=O)[C@H](Cc1c[nH]c2ccccc12)NC(=O)[C@H](Cc1ccccc1)NC(=O)C1CCCC1 [Compound 70, N-(Cyclopentylcarbonyl)-Phe-Trp-Ser-Tyr-D-Arg-Leu-Arg-Pro-NHEt] (Cyclopentanecarbonyl-FWSY[dR]LRP-NHEt)	0.145
CCNC(=O)[C@@H]1CCCN1C(=O)[C@H](CCCNC(=N)N)NC(=O)[C@H](CC(C)C)NC(=O)[C@@H](Cc1c[nH]c2ccccc12)NC(=O)[C@H](CCCCN)NC(=O)[C@H](CO)NC(=O)[C@H](Cc1c[nH]c2ccccc12)NC(=O)[C@H](Cc1c[nH]cn1)NC(=O)CN1CC(C)(C)N=C(c2ccccc2)C1=O [Compound 71, N-(5,6-Dihydro-5,5-dimethyl-2-oxo-3-phenyl-1-(2H)-pyrazineacetyl)-His-Trp-Ser-Lys-D-Trp-Leu-Arg-ProNHEt] (X7-HWSK[dW]LRP-NHEt)	3.16
CCNC(=O)[C@@H]1CCCN1C(=O)[C@H](CCCNC(=N)N)NC(=O)[C@H](CC(C)C)NC(=O)[C@@H](Cc1c[nH]c2ccccc12)NC(=O)[C@H](Cc1ccc(O)cc1)NC(=O)[C@H](CO)NC(=O)[C@H](Cc1c[nH]c2ccccc12)NC(=O)[C@H](Cc1ccccc1)NC(C)=O [Compound 72, N-Acetyl-Phe-Trp-Ser-Tyr-D-Trp-Leu-Arg-ProNHEt] (Ac-FWSY[dW]LRP-NHEt)	0.166
CCNC(=O)[C@@H]1CCCN1C(=O)[C@H](CCCNC(=N)N)NC(=O)[C@H](CC(C)C)NC(=O)[C@@H](Cc1c[nH]c2ccccc12)NC(=O)[C@H](Cc1ccc(O)cc1)NC(=O)[C@H](CO)NC(=O)Cc1ccc(O)cc1 [Compound 73, (4-9)[N-(3-(4-Hydroxyphenyl)acetyl) -Ser^4 -D-Trp^6 -Pro^9 NHEt]LHRH] (X15-SY[dW]LRP-NHEt)	70.8
CCNC(=O)[C@@H]1CCCN1C(=O)[C@H](CCCNC(=N)N)NC(=O)[C@H](CC(C)C)NC(=O)[C@@H](Cc1c[nH]c2ccccc12)NC(=O)[C@H](Cc1ccc(O)cc1)NC(=O)[C@H](CO)NC(=O)Cc1ccc(F)cc1 [Compound 74, (4-9)[N-(3-(4-Fluorophenyl)acetyl) -Ser^4 -D-Trp^6 -Pro^9 NHEt]LHRH] ({Phenylacetyl(4-F)}-SY[dW]LRP-NHEt)	26.3
CCNC(=O)[C@@H]1CCCN1C(=O)[C@H](CCCNC(=N)N)NC(=O)[C@H](CC(C)C)NC(=O)[C@@H](Cc1c[nH]c2ccccc12)NC(=O)[C@H](Cc1ccc(O)cc1)NC(=O)[C@H](CO)NC(=O)Cc1ccc(Cl)cc1 [Compound 75, (4-9)[N-(3-(4-Chlorophenyl)acetyl) -Ser^4 -D-Trp^6 -Pro^9 NHEt]LHRH] ({Phenylacetyl(4-Cl)}-SY[dW]LRP-NHEt)	7.08
CCNC(=O)[C@@H]1CCCN1C(=O)[C@H](CCCNC(=N)N)NC(=O)[C@H](CC(C)C)NC(=O)[C@@H](Cc1c[nH]c2ccccc12)NC(=O)[C@H](Cc1ccc(O)cc1)NC(=O)[C@H](CO)NC(=O)CCc1ccc(O)cc1 [Compound 76, (4-9)[N-(3-(4-Hydroxyphenyl)propionyl) -Ser^4 -D-Trp^6 -Pro^9 NHEt]LHRH] (Desaminotyrosyl-SY[dW]LRP-NHEt)	43.7
CCNC(=O)[C@@H]1CCCN1C(=O)[C@H](CCCNC(=N)N)NC(=O)[C@H](CC(C)C)NC(=O)[C@@H](Cc1c[nH]c2ccccc12)NC(=O)[C@H](Cc1ccc(O)cc1)NC(=O)[C@H](CO)NC(=O)CCc1ccc(F)cc1 [Compound 77, (4-9)[N-(3-(4-Fluorophenyl)propionyl) -Ser^4 -D-Trp^6 -Pro^9 NHEt]LHRH] ({Propanoyl(3-(4-F-phenyl))}-SY[dW]LRP-NHEt)	3.98
CCNC(=O)[C@@H]1CCCN1C(=O)[C@H](CCCNC(=N)N)NC(=O)[C@H](CC(C)C)NC(=O)[C@@H](Cc1c[nH]c2ccccc12)NC(=O)[C@H](Cc1ccc(O)cc1)NC(=O)[C@H](CO)NC(=O)CCc1ccc(OC)cc1 [Compound 78, (4-9)[N-(3-(4-Methoxyphenyl)propionyl) -Ser^4 -D-Trp^6 -Pro^9 NHEt]LHRH] ({Propanoyl(3-(4-MeO-Ph))}-SY[dW]LRP-NHEt)	10.7
CCNC(=O)[C@@H]1CCCN1C(=O)[C@H](CCCNC(=N)N)NC(=O)[C@H](CC(C)C)NC(=O)[C@@H](Cc1c[nH]c2ccccc12)NC(=O)[C@H](Cc1ccc(O)cc1)NC(=O)[C@H](CO)NC(=O)CCc1ccc(C(F)(F)F)cc1 [Compound 79, (4-9)[N-(3-(4-Trifluoromethylphenyl)propionyl)-Ser^4 -D-Trp^6 -Pro^9 NHEt]LHRH] (X13-SY[dW]LRP-NHEt)	1.95
CCNC(=O)[C@@H]1CCCN1C(=O)[C@H](CCCNC(=N)N)NC(=O)[C@H](CC(C)C)NC(=O)[C@@H](Cc1cccs1)NC(=O)[C@H](Cc1ccc(O)cc1)NC(=O)[C@H](CO)NC(=O)CCc1c[nH]c2ccccc12 [Compound 80, (4-9)[N-(3-(3-Indole)propionyl) -Ser^4 -D-Thia^6 -Pro^9 NHEt]LHRH] ({Propanoyl(3-indol-3-yl)}-SY[d2Thi]LRP-NHEt)	50.1
CCNC(=O)[C@@H]1CCCN1C(=O)[C@H](CCCNC(=N)N)NC(=O)[C@H](CC(C)C)NC(=O)[C@@H](Cc1c[nH]c2ccccc12)NC(=O)[C@H](Cc1ccc(O)cc1)N(C)C(=O)[C@H](CO)NC(=O)CC12CC3CC(CC(C3)C1)C2 [Compound 81, N-[(1-Adamantyl)acetyl]-Ser-N-Me-Tyr-D-Trp-Leu-Arg-Pro -NHEt] ({Acetyl(1-adamantyl)}-S[NMeY][dW]LRP-NHEt)	0.589
CCNC(=O)[C@@H]1CCCN1C(=O)[C@H](CCCNC(=N)N)NC(=O)[C@H](CC(C)C)NC(=O)[C@@H](Cc1c[nH]c2ccccc12)NC(=O)[C@H](Cc1ccc(O)cc1)NC(=O)[C@H](CO)NC(=O)[C@H](Cc1ccc2ccccc2c1)NC(C)=O [Compound 84, (3-9)[N-Ac-2-Nal^3 -D-Trp^6 -Pro^9 NHEt]LHRH] (Ac-[2Nal]SY[dW]LRP-NHEt)	1.41
CCNC(=O)[C@@H]1CCCN1C(=O)[C@H](CCCN=C(N)N)NC(=O)[C@H](CC(C)C)NC(=O)[C@@H](Cc1c[nH]c2ccccc12)NC(=O)[C@H](Cc1ccc(O)cc1)NC(=O)[C@H](CO)NC(=O)[C@@H](Cc1c[nH]c2ccccc12)NC(=O)CCc1ccc(Cl)cc1 [Compound 85, (3 9)[N-(3-(4-Chlorophenyl)propionyl)-D-Trp^3,6 -Pro^9 NHEt]LHRH] ({Propanoyl(3-(4-Cl-Ph))}-[dW]SY[dW]LRP-NHEt)	0.0741
CCNC(=O)[C@@H]1CCCN1C(=O)[C@H](CCCN=C(N)N)NC(=O)[C@H](CC(C)C)NC(=O)[C@@H](Cc1c[nH]c2ccccc12)NC(=O)[C@H](Cc1ccc(O)cc1)NC(=O)[C@H](CO)NC(=O)[C@@H](Cc1ccc(O)cc1)NC(=O)CCc1ccc(Cl)cc1 [Compound 86, (3-9)[N-(3-(4-Chlorophenyl)propionyl)-D -Tyr^3 -D-Trp^6 -Pro^9 NHEt]LHRH] ({Propanoyl(3-(4-Cl-Ph))}-[dY]SY[dW]LRP-NHEt)	0.0174
CCNC(=O)[C@@H]1CCCN1C(=O)[C@H](CCCN=C(N)N)NC(=O)[C@H](CC(C)C)NC(=O)[C@@H](Cc1c[nH]c2ccccc12)NC(=O)[C@H](Cc1ccc(O)cc1)NC(=O)[C@H](CO)NC(=O)[C@H](Cc1ccc(O)cc1)NC(=O)CCc1ccc(Cl)cc1 [Compound 87, (3-9)[N-(3-(4-Chlorophenyl)propionyl) -Tyr^3 -D-Trp^6 -Pro^9 NHEt]LHRH] ({Propanoyl(3-(4-Cl-Ph))}-YSY[dW]LRP-NHEt)	0.129
CCNC(=O)[C@@H]1CCCN1C(=O)[C@H](CCCNC(=N)N)NC(=O)[C@H](CC(C)C)NC(=O)[C@@H](Cc1c[nH]c2ccccc12)NC(=O)[C@H](Cc1ccc(O)cc1)NC(=O)[C@H](CO)NC(=O)[C@H](Cc1c[nH]c2ccccc12)NC(=O)CCc1ccccc1F [Compound 88, (3-9)[N-(3-(2-Fluorophenyl)propionyl) -Trp^3 -D-Trp^6 -Pro^9 NHEt]LHRH] (X6-WSY[dW]LRP-NHEt)	0.0575
CCNC(=O)[C@@H]1CCCN1C(=O)[C@H](CCCN=C(N)N)NC(=O)[C@H](CC(C)C)NC(=O)[C@@H](Cc1c[nH]c2ccccc12)NC(=O)[C@H](Cc1ccc(O)cc1)NC(=O)[C@H](CO)NC(=O)[C@@H](Cc1c[nH]c2ccccc12)NC(=O)CCc1ccc(F)cc1F [Compound 90, (3-9)[N-(3-(2,4-Difluorophenyl)propionyl) -D-Trp^3,6 -Pro^9 NHEt]LHRH] ({Hydrocinnamoyl(2,4-F2)}-[dW]SY[dW]LRP-NHEt)	0.0316
CCNC(=O)[C@@H]1CCCN1C(=O)[C@H](CCCNC(=N)N)NC(=O)[C@H](CC(C)C)NC(=O)[C@@H](Cc1c[nH]c2ccccc12)NC(=O)[C@H](Cc1ccc(O)cc1)NC(=O)[C@H](CO)NC(=O)[C@@H](Cc1c[nH]c2ccccc12)NC(=O)CCc1ccc(F)cc1 [Compound 91, (3-9)[N-(3-(4-Fluorophenyl)propionyl) -D-Trp^3,6 Pro^9 NHEt]LHRH] ({Propanoyl(3-(4-F-phenyl))}-[dW]SY[dW]LRP-NHEt)	0.0288
CCNC(=O)[C@@H]1CCCN1C(=O)[C@H](CCCN=C(N)N)NC(=O)[C@H](CC(C)C)NC(=O)[C@@H](Cc1ccc(O)cc1)NC(=O)[C@H](Cc1ccc(O)cc1)NC(=O)[C@H](CO)NC(=O)[C@H](Cc1c[nH]c2ccccc12)NC(=O)CCc1ccc(F)cc1 [Compound 92, (3-9)[N-(3-(4-Fluorophenyl)propionyl) -Trp^3 -D-Tyr^6 -Pro^9 NHEt]LHRH] ({Propanoyl(3-(4-F-phenyl))}-WSY[dY]LRP-NHEt)	0.0316
